According to PubChem BioAssay AID1963830 (Molecular Pharmacology Branch, DTP, NCI, 2024):

Tested on: 922993-354-T-J3-PDC complex spheroid viability
Experiment: Anticancer human tumor 922993-354-T-J3-PDC patient-derived endometrial carcinoma cell line growth inhibition [POLQ]
Conditions: for IC50: curve of first compound; for viability, T/C: stronger effect = lower value
Method in brief: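 PDC + HUVEC + MSC complex spheroids; POLQ inhibitors ± partner drugs; top conc. at/near clinical Cmax, else 10 microM (SN-38 1 microM), half-log dilutions; 37 degrees C, 5% CO2.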

[1] = second compound 0.0316 µM, first compound 0.0316 µM
[2] = second compound 0.0316 µM, first compound 0.1 µM
[3] = second compound 0.0316 µM, first compound 0.316 µM
[4] = second compound 0.0316 µM, first compound 1 µM
[5] = second compound 0.0316 µM, first compound 3.16 µM
[6] = second compound 0.0316 µM, first compound 10 µM
[7] = second compound 0.1 µM, first compound 0.0316 µM
[8] = second compound 0.1 µM, first compound 0.1 µM
[9] = second compound 0.1 µM, first compound 0.316 µM
[10] = second compound 0.1 µM, first compound 1 µM
[11] = second compound 0.1 µM, first compound 3.16 µM
[12] = second compound 0.1 µM, first compound 10 µM
[13] = second compound 0.316 µM, first compound 0.0316 µM
[14] = second compound 0.316 µM, first compound 0.1 µM
[15] = second compound 0.316 µM, first compound 0.316 µM
[16] = second compound 0.316 µM, first compound 1 µM
[17] = second compound 0.316 µM, first compound 3.16 µM
[18] = second compound 0.316 µM, first compound 10 µM
[19] = second compound 1 µM, first compound 0.0316 µM
[20] = second compound 1 µM, first compound 0.1 µM
[21] = second compound 1 µM, first compound 0.316 µM
[22] = second compound 1 µM, first compound 1 µM
[23] = second compound 1 µM, first compound 3.16 µM
[24] = second compound 1 µM, first compound 10 µM
[25] = second compound 3.16 µM, first compound 0.0316 µM
[26] = second compound 3.16 µM, first compound 0.1 µM
[27] = second compound 3.16 µM, first compound 0.316 µM
[28] = second compound 3.16 µM, first compound 1 µM
[29] = second compound 3.16 µM, first compound 3.16 µM
[30] = second compound 3.16 µM, first compound 10 µM
[31] = second compound 10 µM, first compound 0.0316 µM
[32] = second compound 10 µM, first compound 0.1 µM
[33] = second compound 10 µM, first compound 0.316 µM
[34] = second compound 10 µM, first compound 1 µM
[35] = second compound 10 µM, first compound 3.16 µM
[36] = second compound 10 µM, first compound 10 µM
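Note: spheroids exposed to the agents for one week.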
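Throughout, for viability, T/C: 100% = DMSO vehicle control wells.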

Compound: CC1COCCN1c1cc(-c2ccnn2C)c2ccnc(-c3ccn[nH]3)c2n1 (stereo not drawn) + Nc1ccc(C#CCN(C(=O)Cc2ncc(C(F)(F)F)cc2C(F)(F)F)c2ccc(F)cc2)nn1
- IC50 (second compound 0.0316 µM): 680 nM
- IC50 (second compound 0.1 µM): 653 nM
- IC50 (second compound 0.316 µM): 717 nM
- IC50 (second compound 1 µM): 729 nM
- IC50 (second compound 3.16 µM): 593 nM
- IC50 (second compound 10 µM): 449 nM
- viability, T/C [1]: 107%
- viability, T/C [2]: 102%
- viability, T/C [3]: 72.5%
- viability, T/C [4]: 38.3%
- viability, T/C [5]: 21%
- viability, T/C [6]: 13.9%
- viability, T/C [7]: 109%
- viability, T/C [8]: 95.5%
- viability, T/C [9]: 70.7%
- viability, T/C [10]: 40%
- viability, T/C [11]: 14.2%
- viability, T/C [12]: 14.5%
- viability, T/C [13]: 104%
- viability, T/C [14]: 93.1%
- viability, T/C [15]: 72%
- viability, T/C [16]: 42.1%
- viability, T/C [17]: 18.9%
- viability, T/C [18]: 13.8%
- viability, T/C [19]: 102%
- viability, T/C [20]: 92.1%
- viability, T/C [21]: 78.2%
- viability, T/C [22]: 39.2%
- viability, T/C [23]: 16.8%
- viability, T/C [24]: 10.1%
- viability, T/C [25]: 101%
- viability, T/C [26]: 89.5%
- viability, T/C [27]: 69.2%
- viability, T/C [28]: 33.8%
- viability, T/C [29]: 19.3%
- viability, T/C [30]: 11.5%
- viability, T/C [31]: 99.1%
- viability, T/C [32]: 80.2%
- viability, T/C [33]: 64.7%
- viability, T/C [34]: 23.1%
- viability, T/C [35]: 17.5%
- viability, T/C [36]: 13.2%

Compound: CC1COCCN1c1cc(C2(S(C)(=N)=O)CC2)nc(-c2ccnc3[nH]ccc23)n1 (stereo not drawn) + Nc1ccc(C#CCN(C(=O)Cc2ncc(C(F)(F)F)cc2C(F)(F)F)c2ccc(F)cc2)nn1
- IC50 (second compound 0.0316 µM): > 10000 nM
- IC50 (second compound 0.1 µM): > 10000 nM
- IC50 (second compound 0.316 µM): > 10000 nM
- IC50 (second compound 1 µM): > 10000 nM
- IC50 (second compound 3.16 µM): > 10000 nM
- IC50 (second compound 10 µM): 6370 nM
- viability, T/C [1]: 104%
- viability, T/C [2]: 106%
- viability, T/C [3]: 98.7%
- viability, T/C [4]: 106%
- viability, T/C [5]: 95.5%
- viability, T/C [6]: 88.5%
- viability, T/C [7]: 107%
- viability, T/C [8]: 105%
- viability, T/C [9]: 101%
- viability, T/C [10]: 102%
- viability, T/C [11]: 105%
- viability, T/C [12]: 89.2%
- viability, T/C [13]: 105%
- viability, T/C [14]: 101%
- viability, T/C [15]: 101%
- viability, T/C [16]: 97.2%
- viability, T/C [17]: 105%
- viability, T/C [18]: 91.6%
- viability, T/C [19]: 102%
- viability, T/C [20]: 99%
- viability, T/C [21]: 102%
- viability, T/C [22]: 98.9%
- viability, T/C [23]: 101%
- viability, T/C [24]: 89.6%
- viability, T/C [25]: 103%
- viability, T/C [26]: 95%
- viability, T/C [27]: 102%
- viability, T/C [28]: 95.5%
- viability, T/C [29]: 101%
- viability, T/C [30]: 85.3%
- viability, T/C [31]: 98.3%
- viability, T/C [32]: 96.5%
- viability, T/C [33]: 98.7%
- viability, T/C [34]: 92.9%
- viability, T/C [35]: 81.6%
- viability, T/C [36]: 29.9%

Compound: COc1ccc([C@@H](O)c2cc(-c3ncnc4cc(N5CCOCC5)ccc34)c(F)cc2Cl)nn1 + Nc1ccc(C#CCN(C(=O)Cc2ncc(C(F)(F)F)cc2C(F)(F)F)c2ccc(F)cc2)nn1
- IC50 (second compound 0.0316 µM): > 10000 nM
- IC50 (second compound 0.1 µM): > 10000 nM
- IC50 (second compound 0.316 µM): > 10000 nM
- IC50 (second compound 1 µM): > 10000 nM
- IC50 (second compound 3.16 µM): > 10000 nM
- IC50 (second compound 10 µM): > 10000 nM
- viability, T/C [1]: 103%
- viability, T/C [2]: 103%
- viability, T/C [3]: 98%
- viability, T/C [4]: 100%
- viability, T/C [5]: 91.3%
- viability, T/C [6]: 73.8%
- viability, T/C [7]: 106%
- viability, T/C [8]: 104%
- viability, T/C [9]: 100%
- viability, T/C [10]: 97.9%
- viability, T/C [11]: 93.7%
- viability, T/C [12]: 75.5%
- viability, T/C [13]: 106%
- viability, T/C [14]: 99.2%
- viability, T/C [15]: 101%
- viability, T/C [16]: 97.4%
- viability, T/C [17]: 87.3%
- viability, T/C [18]: 74.9%
- viability, T/C [19]: 105%
- viability, T/C [20]: 102%
- viability, T/C [21]: 99.1%
- viability, T/C [22]: 93.5%
- viability, T/C [23]: 89.4%
- viability, T/C [24]: 74.9%
- viability, T/C [25]: 97.1%
- viability, T/C [26]: 97%
- viability, T/C [27]: 93.5%
- viability, T/C [28]: 92.5%
- viability, T/C [29]: 86.5%
- viability, T/C [30]: 72%
- viability, T/C [31]: 97.3%
- viability, T/C [32]: 89%
- viability, T/C [33]: 91.4%
- viability, T/C [34]: 91.9%
- viability, T/C [35]: 90.3%
- viability, T/C [36]: 68.8%

Compound: Cn1ncnc1[C@H]1c2n[nH]c(=O)c3cc(F)cc(c23)N[C@@H]1c1ccc(F)cc1 + Nc1ccc(C#CCN(C(=O)Cc2ncc(C(F)(F)F)cc2C(F)(F)F)c2ccc(F)cc2)nn1
- IC50 (second compound 0.0316 µM): > 100 nM
- IC50 (second compound 0.1 µM): > 100 nM
- IC50 (second compound 0.316 µM): > 100 nM
- IC50 (second compound 1 µM): > 100 nM
- IC50 (second compound 3.16 µM): > 100 nM
- IC50 (second compound 10 µM): > 100 nM
- viability, T/C (second compound 0.0316 µM, first compound 0.000316 µM): 97.9%
- viability, T/C (second compound 0.0316 µM, first compound 0.001 µM): 102%
- viability, T/C (second compound 0.0316 µM, first compound 0.00316 µM): 101%
- viability, T/C (second compound 0.0316 µM, first compound 0.01 µM): 98.3%
- viability, T/C [1]: 101%
- viability, T/C [2]: 89.2%
- viability, T/C (second compound 0.1 µM, first compound 0.000316 µM): 107%
- viability, T/C (second compound 0.1 µM, first compound 0.001 µM): 102%
- viability, T/C (second compound 0.1 µM, first compound 0.00316 µM): 102%
- viability, T/C (second compound 0.1 µM, first compound 0.01 µM): 98.1%
- viability, T/C [7]: 102%
- viability, T/C [8]: 86.5%
- viability, T/C (second compound 0.316 µM, first compound 0.000316 µM): 104%
- viability, T/C (second compound 0.316 µM, first compound 0.001 µM): 106%
- viability, T/C (second compound 0.316 µM, first compound 0.00316 µM): 100%
- viability, T/C (second compound 0.316 µM, first compound 0.01 µM): 96.6%
- viability, T/C [13]: 96%
- viability, T/C [14]: 89.6%
- viability, T/C (second compound 1 µM, first compound 0.000316 µM): 105%
- viability, T/C (second compound 1 µM, first compound 0.001 µM): 101%
- viability, T/C (second compound 1 µM, first compound 0.00316 µM): 98.7%
- viability, T/C (second compound 1 µM, first compound 0.01 µM): 98.1%
- viability, T/C [19]: 96.8%
- viability, T/C [20]: 86.2%
- viability, T/C (second compound 3.16 µM, first compound 0.000316 µM): 102%
- viability, T/C (second compound 3.16 µM, first compound 0.001 µM): 99%
- viability, T/C (second compound 3.16 µM, first compound 0.00316 µM): 93%
- viability, T/C (second compound 3.16 µM, first compound 0.01 µM): 95.4%
- viability, T/C [25]: 89.2%
- viability, T/C [26]: 82.6%
- viability, T/C (second compound 10 µM, first compound 0.000316 µM): 101%
- viability, T/C (second compound 10 µM, first compound 0.001 µM): 94.9%
- viability, T/C (second compound 10 µM, first compound 0.00316 µM): 94.8%
- viability, T/C (second compound 10 µM, first compound 0.01 µM): 85.7%
- viability, T/C [31]: 71.9%
- viability, T/C [32]: 53.4%
